Values joined by “and” are separate entries in the source; they are usually repeats but may differ in a detail not shown here. Equal entries are not always repeated. One block for each compound: values may come before it.
Tested on: 855422-203-R-J1-PDC complex spheroid viability
Experiment: Anticancer human tumor 855422-203-R-J1-PDC patient-derived bladder carcinoma cell line growth inhibition
Details: for viability, T/C: stronger effect = lower value
Summary of the method: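 Complex spheroids of tumor cells with HUVEC and human MSCs, exposed to iadademstat combined with other agents. Each agent tested in half-log steps from near clinical Cmax (else 10 microM top), DMSO ≤0.25%.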

[1] = curve of first compound, second compound 0.1 µM
[2] = curve of first compound, second compound 0.316 µM
[3] = curve of first compound, second compound 1 µM
[4] = curve of first compound, second compound 3.16 µM
[5] = curve of first compound, second compound 10 µM
[6] = second compound 0.1 µM, first compound 0.00316 µM
[7] = second compound 0.1 µM, first compound 0.01 µM
[8] = second compound 0.1 µM, first compound 0.0316 µM
[9] = second compound 0.1 µM, first compound 0.1 µM
[10] = second compound 0.1 µM, first compound 0.316 µM
[11] = second compound 0.1 µM, first compound 1 µM
[12] = second compound 0.316 µM, first compound 0.00316 µM
[13] = second compound 0.316 µM, first compound 0.01 µM
[14] = second compound 0.316 µM, first compound 0.0316 µM
[15] = second compound 0.316 µM, first compound 0.1 µM
[16] = second compound 0.316 µM, first compound 0.316 µM
[17] = second compound 0.316 µM, first compound 1 µM
[18] = second compound 1 µM, first compound 0.00316 µM
[19] = second compound 1 µM, first compound 0.01 µM
[20] = second compound 1 µM, first compound 0.0316 µM
[21] = second compound 1 µM, first compound 0.1 µM
[22] = second compound 1 µM, first compound 0.316 µM
[23] = second compound 1 µM, first compound 1 µM
[24] = second compound 3.16 µM, first compound 0.00316 µM
[25] = second compound 3.16 µM, first compound 0.01 µM
[26] = second compound 3.16 µM, first compound 0.0316 µM
[27] = second compound 3.16 µM, first compound 0.1 µM
[28] = second compound 3.16 µM, first compound 0.316 µM
[29] = second compound 3.16 µM, first compound 1 µM
[30] = second compound 10 µM, first compound 0.00316 µM
[31] = second compound 10 µM, first compound 0.01 µM
[32] = second compound 10 µM, first compound 0.0316 µM
[33] = second compound 10 µM, first compound 0.1 µM
[34] = second compound 10 µM, first compound 0.316 µM
[35] = second compound 10 µM, first compound 1 µM
[36] = second compound 0.1 µM, first compound 0.00949 µM
[37] = second compound 0.1 µM, first compound 0.03 µM
[38] = second compound 0.1 µM, first compound 0.0949 µM
[39] = second compound 0.1 µM, first compound 0.3 µM
[40] = second compound 0.316 µM, first compound 0.00949 µM
[41] = second compound 0.316 µM, first compound 0.03 µM
[42] = second compound 0.316 µM, first compound 0.0949 µM
[43] = second compound 0.316 µM, first compound 0.3 µM
[44] = second compound 1 µM, first compound 0.00949 µM
[45] = second compound 1 µM, first compound 0.03 µM
[46] = second compound 1 µM, first compound 0.0949 µM
[47] = second compound 1 µM, first compound 0.3 µM
[48] = second compound 3.16 µM, first compound 0.00949 µM
[49] = second compound 3.16 µM, first compound 0.03 µM
[50] = second compound 3.16 µM, first compound 0.0949 µM
[51] = second compound 3.16 µM, first compound 0.3 µM
[52] = second compound 10 µM, first compound 0.00949 µM
[53] = second compound 10 µM, first compound 0.03 µM
[54] = second compound 10 µM, first compound 0.0949 µM
[55] = second compound 10 µM, first compound 0.3 µM
[56] = second compound 0.1 µM, first compound 0.000949 µM
[57] = second compound 0.1 µM, first compound 0.003 µM
[58] = second compound 0.316 µM, first compound 0.000949 µM
[59] = second compound 0.316 µM, first compound 0.003 µM
[60] = second compound 1 µM, first compound 0.000949 µM
[61] = second compound 1 µM, first compound 0.003 µM
[62] = second compound 3.16 µM, first compound 0.000949 µM
[63] = second compound 3.16 µM, first compound 0.003 µM
[64] = second compound 10 µM, first compound 0.000949 µM
[65] = second compound 10 µM, first compound 0.003 µM
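Further: drug exposure lasted 7 days starting on day 3 after seeding.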
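Wherever viability, T/C is given: luminescence viability as percent of DMSO vehicle wells = 100%.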

SMILES: CC1COCCN1c1cc(-c2ccnn2C)c2ccnc(-c3ccn[nH]3)c2n1 (stereo unspecified) + NC1CCC(NC2CC2c2ccccc2)CC1
IC50 [1]: 183 nM
IC50 [2]: 163 nM
IC50 [3]: 178 nM
IC50 [4]: 99.9 nM
IC50 [5]: 86.1 nM
viability, T/C [6]: 95.1%
viability, T/C [7]: 83.1%
viability, T/C [8]: 86.5%
viability, T/C [9]: 59.5%
viability, T/C [10]: 41.5%
viability, T/C [11]: 33%
viability, T/C [12]: 91.8%
viability, T/C [13]: 78.9%
viability, T/C [14]: 90.3%
viability, T/C [15]: 60%
viability, T/C [16]: 39.5%
viability, T/C [17]: 33%
viability, T/C [18]: 85%
viability, T/C [19]: 79.7%
viability, T/C [20]: 96.4%
viability, T/C [21]: 63.8%
viability, T/C [22]: 38.7%
viability, T/C [23]: 34%
viability, T/C [24]: 87.4%
viability, T/C [25]: 83.5%
viability, T/C [26]: 87.4%
viability, T/C [27]: 49.9%
viability, T/C [28]: 32.5%
viability, T/C [29]: 27.2%
viability, T/C [30]: 88%
viability, T/C [31]: 81.1%
viability, T/C [32]: 84%
viability, T/C [33]: 44.9%
viability, T/C [34]: 33.2%
viability, T/C [35]: 31.7%

SMILES: O=C(C=Cc1cccc(S(=O)(=O)Nc2ccccc2)c1)NO + NC1CC1c1ccc(-c2cccc(O)c2)cc1
IC50 [1]: 446 nM
IC50 [2]: 448 nM
IC50 [3]: 404 nM
IC50 [4]: 466 nM
IC50 [5]: 336 nM
viability, T/C [36]: 102%
viability, T/C [37]: 109%
viability, T/C [38]: 106%
viability, T/C [39]: 66.2%
viability, T/C (second compound 0.1 µM, first compound 0.949 µM): 17.4%
viability, T/C (second compound 0.1 µM, first compound 3 µM): 0.43%
viability, T/C [40]: 103%
viability, T/C [41]: 112%
viability, T/C [42]: 122%
viability, T/C [43]: 66.4%
viability, T/C (second compound 0.316 µM, first compound 0.949 µM): 19.4%
viability, T/C (second compound 0.316 µM, first compound 3 µM): 0.31%
viability, T/C [44]: 100%
viability, T/C [45]: 116%
viability, T/C [46]: 114%
viability, T/C [47]: 60.4%
viability, T/C (second compound 1 µM, first compound 0.949 µM): 18.3%
viability, T/C (second compound 1 µM, first compound 3 µM): 0.29%
viability, T/C [48]: 94.5%
viability, T/C [49]: 105%
viability, T/C [50]: 118%
viability, T/C [51]: 69.8%
viability, T/C (second compound 3.16 µM, first compound 0.949 µM): 17.1%
viability, T/C (second compound 3.16 µM, first compound 3 µM): 0.24%
viability, T/C [52]: 97.6%
viability, T/C [53]: 108%
viability, T/C [54]: 106%
viability, T/C [55]: 54%
viability, T/C (second compound 10 µM, first compound 0.949 µM): 10.9%
viability, T/C (second compound 10 µM, first compound 3 µM): 0.27%

IC50 (curve of compound): 5.5 nM and 4.42 nM
SMILES: Nc1ccn(C2OC(CO)C(O)C2(F)F)c(=O)n1 (stereo unspecified)
viability, T/C (compound 0.000949 µM): 90.2% and 96.5%
viability, T/C (compound 0.003 µM): 59.8% and 55%
viability, T/C (compound 0.00949 µM): 37.2% and 35.9%
viability, T/C (compound 0.03 µM): 36.1% and 29.9%
viability, T/C (compound 0.0949 µM): 29.3% and 22%
viability, T/C (compound 0.3 µM): 19.9% and 16.3%

SMILES: Nc1ccn(C2OC(CO)C(O)C2(F)F)c(=O)n1 (stereo unspecified) + NC1CC1c1ccc(-c2cccc(O)c2)cc1
IC50 [1]: 2.84 nM
IC50 [2]: 3.19 nM
IC50 [3]: 2.95 nM
IC50 [4]: 2.25 nM
IC50 [5]: 3.01 nM
viability, T/C [56]: 84.7%
viability, T/C [57]: 46.3%
viability, T/C [36]: 33.9%
viability, T/C [37]: 25.2%
viability, T/C [38]: 22.6%
viability, T/C [39]: 18.3%
viability, T/C [58]: 86.9%
viability, T/C [59]: 49%
viability, T/C [40]: 34.2%
viability, T/C [41]: 26.7%
viability, T/C [42]: 19.9%
viability, T/C [43]: 17.1%
viability, T/C [60]: 76%
viability, T/C [61]: 48.5%
viability, T/C [44]: 36%
viability, T/C [45]: 25%
viability, T/C [46]: 20.4%
viability, T/C [47]: 20.6%
viability, T/C [62]: 76.8%
viability, T/C [63]: 36.9%
viability, T/C [48]: 33.3%
viability, T/C [49]: 25.1%
viability, T/C [50]: 17.8%
viability, T/C [51]: 18.8%
viability, T/C [64]: 77.4%
viability, T/C [65]: 46.4%
viability, T/C [52]: 38%
viability, T/C [53]: 28%
viability, T/C [54]: 23.3%
viability, T/C [55]: 18.5%

SMILES: O=C(C=Cn1cnc(-c2cc(C(F)(F)F)cc(C(F)(F)F)c2)n1)NNc1cnccn1 + NC1CC1c1ccc(-c2cccc(O)c2)cc1
IC50 [1]: 27.8 nM
IC50 [2]: 25.3 nM
IC50 [3]: 23.9 nM
IC50 [4]: 21.4 nM
IC50 [5]: 23.2 nM
viability, T/C [6]: 133%
viability, T/C [7]: 75.4%
viability, T/C [8]: 44.4%
viability, T/C [9]: 35.1%
viability, T/C [10]: 27.6%
viability, T/C [11]: 16.2%
viability, T/C [12]: 121%
viability, T/C [13]: 75%
viability, T/C [14]: 40.5%
viability, T/C [15]: 32.6%
viability, T/C [16]: 28.2%
viability, T/C [17]: 17.7%
viability, T/C [18]: 121%
viability, T/C [19]: 71.1%
viability, T/C [20]: 38.9%
viability, T/C [21]: 34.8%
viability, T/C [22]: 29.3%
viability, T/C [23]: 16.8%
viability, T/C [24]: 112%
viability, T/C [25]: 68.3%
viability, T/C [26]: 36.8%
viability, T/C [27]: 33.5%
viability, T/C [28]: 26.6%
viability, T/C [29]: 18.9%
viability, T/C [30]: 97.8%
viability, T/C [31]: 70.3%
viability, T/C [32]: 39.7%
viability, T/C [33]: 33.3%
viability, T/C [34]: 31%
viability, T/C [35]: 20.1%

IC50 (compound alone, run of 12/07/2021): > 10000 nM
SMILES: NC1CC1c1ccc(-c2cccc(O)c2)cc1 (stereo unspecified)
viability, T/C (compound 0.1 µM): 84.2%
viability, T/C (compound 0.316 µM): 93.7% [middle of 25 runs]
viability, T/C (compound 1 µM): 90.2% [middle of 25 runs]

SMILES: Nc1ccn(C2OC(CO)C(O)C2(F)F)c(=O)n1 (stereo unspecified) + NC1CCC(NC2CC2c2ccccc2)CC1
IC50 [1]: 4.38 nM
IC50 [2]: 5.79 nM
IC50 [3]: 6.14 nM
IC50 [4]: 6.83 nM
IC50 [5]: 8.48 nM
viability, T/C [56]: 90.5%
viability, T/C [57]: 53.3%
viability, T/C [36]: 39.5%
viability, T/C [37]: 34.7%
viability, T/C [38]: 28.7%
viability, T/C [39]: 24.4%
viability, T/C [58]: 86.6%
viability, T/C [59]: 58.9%
viability, T/C [40]: 41.3%
viability, T/C [41]: 34.8%
viability, T/C [42]: 30%
viability, T/C [43]: 20.6%
viability, T/C [60]: 88.5%
viability, T/C [61]: 57.2%
viability, T/C [44]: 45.4%
viability, T/C [45]: 37.9%
viability, T/C [46]: 32.5%
viability, T/C [47]: 28.6%
viability, T/C [62]: 79.2%
viability, T/C [63]: 63.1%
viability, T/C [48]: 43.5%
viability, T/C [49]: 35.1%
viability, T/C [50]: 26.8%
viability, T/C [51]: 24.7%
viability, T/C [64]: 82.1%
viability, T/C [65]: 55.9%
viability, T/C [52]: 52%
viability, T/C [53]: 39.9%
viability, T/C [54]: 27.6%
viability, T/C [55]: 22.3%
